Counter-ions that a name gives are not always drawn.
Target: T1, Bet bromodomain protein (BRD4) (Homo sapiens, UniProt O60885)
T1 construct: made in house
Assay: Bet bromodomain TR-FRET assay
Format: binding
Details: 300 nM acetyl histone peptide substrate, results given as Group A/B/C
Procedure: In-Vitro Biochemical Data of bicyclic heterocyclic derivatives in time-resolved fluorescence resonance energy transfer (TR-FRET) assay.
The Bet brommodomain TR-FRET assay has been used to identify compounds that bind to bet bromodomain and prevent its interaction with acetylated histone peptides.
In the assay, optimized concentration of in-house Bet bromodomain protein (BRD4) and 300 nM of acetyl histone peptide substrate were diluted in assay buffer (50 mM HEPES, pH: 7.5, 50 mM NaCl, 500 μM CHAPS) and were added to the positive control and test control wells in a 384 well plate. Substrate control wells have 300 nM of acetyl histone peptide substrate diluted in assay buffer. Buffer blank wells were added with assay buffer. The reaction mixture was allowed for incubation at room temperature for 30 mins. Stock solutions of test compounds at 20 mM DMSO are prepared. Compounds are serially diluted and added to the test wells in 384-well polypropylene plates. The reaction mixture was further incubated for 30 mins at room temperature on a plate shaker. 2 nM of Europium labeled streptavidn and 10 nM of XL-665 labeled antibody diluted in detection buffer (50 mM HEPES, pH: 7.5, 50 mM NaCl, 500 μM CHAPS and 800 mM KF) were added to all the wells excluding the buffer blank wells. The reaction plate was incubated for additional 30 mins at room temperature on plate shaker. The plate was read in Perkin Elmer WALLAC 1420 Multilabel Counter Victor 3 (Ex: 340 nm Em: 615 and 665 nm). The amount of displacement of the peptide was measured as ratio of specific 665 nm energy transfer signal to 615 nm signals. The compounds IC50 was determined by fitting the dose response data to sigmoid curve fitting equation using Graph Pad Prism software V5.

Row | Compound | IC50 [nM]
1 | COc1cc2c(cc1-c1c(C)noc1C)cc(C1CCCCC1)c(=O)n2Cc1ccccn1 [Compound 68, 3-cyclohexyl-6-(3,5-dimethylisoxazol-4-yl)-7-methoxy-1-(pyridin-2-ylmethyl)quinolin-2(1H)-one] | ≤ 1000
2 | Cc1noc(C)c1-c1cc2ccc(=O)n(Cc3ccccn3)c2cc1O [Compound 72, 6-(3,5-dimethylisoxazol-4-yl)-7-hydroxy-1-(pyridin-2-ylmethyl)quinolin-2(1H)-one] | ≤ 1000
3 | Cc1noc(C)c1-c1cc2ccc(=O)n(Cc3ccc(Cl)cn3)c2cc1O [Compound 73, 1-((5-chloropyridin-2-yl)methyl)-6-(3,5-dimethylisoxazol-4-yl)-7-hydroxyquinolin-2(1H)-one] | ≤ 1000
4 | Cc1noc(C)c1-c1cc2ccc(=O)n(Cc3ccccn3)c2cc1OCC(F)(F)F [Compound 74, 6-(3,5-dimethylisoxazol-4-yl)-1-(pyridin-2-ylmethyl)-7-(2,2,2-trifluoroethoxy)quinolin-2(1H)-one] | ≤ 1000
5 | Cc1noc(C)c1-c1cc2ccc(=O)n(Cc3ccccn3)c2cc1OCCN1CCOCC1 [Compound 75, 6-(3,5-dimethylisoxazol-4-yl)-7-(2-morpholinoethoxy)-1-(pyridin-2-ylmethyl)quinolin-2(1H)-one] | 1000 to 3000
6 | Cc1noc(C)c1-c1cc2ccc(=O)n(Cc3ccccn3)c2cc1OCCN(C)C [Compound 76, 7-(2-(dimethylamino)ethoxy)-6-(3,5-dimethylisoxazol-4-yl)-1-(pyridin-2-ylmethyl)quinolin-2(1H)-one] | > 3000
7 | Cc1noc(C)c1-c1cc2ccc(=O)n(Cc3ccccn3)c2cc1OCC1CCNCC1 [Compound 77, 6-(3,5-dimethylisoxazol-4-yl)-7-(piperidin-4-ylmethoxy)-1-(pyridin-2-ylmethyl)quinolin-2(1H)-one] | ≤ 1000
8 | CCCCOc1cc2c(ccc(=O)n2Cc2ccccn2)cc1-c1c(C)noc1C [Compound 78, 7-butoxy-6-(3,5-dimethylisoxazol-4-yl)-1-(pyridin-2-ylmethyl)quinolin-2(1H)-one] | ≤ 1000
9 | Cc1noc(C)c1-c1cc2ccc(=O)n(Cc3ccccn3)c2cc1OCCO [Compound 80, 6-(3,5-dimethylisoxazol-4-yl)-7-(2-hydroxyethoxy)-1-(pyridin-2-ylmethyl)quinolin-2(1H)-one] | ≤ 1000
10 | Cc1noc(C)c1-c1cc2ccc(=O)n(Cc3ccccn3)c2cc1OCCN1CCCC1 [Compound 81, 6-(3,5-dimethylisoxazol-4-yl)-1-(pyridin-2-ylmethyl)-7-(2-(pyrrolidin-1-yl)ethoxy)quinolin-2(1H)-one] | 1000 to 3000
11 | Cc1noc(C)c1-c1cc2ccc(=O)n(Cc3ccccn3)c2cc1OCCN1CCNCC1 [Compound 82, 6-(3,5-dimethylisoxazol-4-yl)-7-(2-(piperazin-1-yl)ethoxy)-1-(pyridin-2-ylmethyl)quinolin-2(1H)-one] | 1000 to 3000
12 | Cc1noc(C)c1-c1cc2ccc(=O)n(Cc3ccccn3)c2cc1OCc1ccncc1 [Compound 83, 6-(3,5-dimethylisoxazol-4-yl)-1-(pyridin-2-ylmethyl)-7-(pyridin-4-ylmethoxy)quinolin-2(1H)-one] | ≤ 1000
13 | Cc1noc(C)c1-c1cc2ccc(=O)n(Cc3ccccn3)c2cc1OC1CCNCC1 [Compound 86, 6-(3,5-dimethylisoxazol-4-yl)-7-(piperidin-4-yloxy)-1-(pyridin-2-ylmethyl)quinolin-2(1H)-one] | > 3000
14 | Cc1noc(C)c1-c1cc2ccc(=O)n(Cc3ccccn3)c2cc1OCCC1CCNCC1 [Compound 88, 6-(3,5-dimethylisoxazol-4-yl)-7-(2-(piperidin-4-yl)ethoxy)-1-(pyridin-2-ylmethyl)quinolin-2(1H)-one] | 1000 to 3000
15 | CCC(=O)N1CCC(CN2C(=O)COc3cc(-c4c(C)noc4C)c(OC)cc32)CC1 [Compound 90, 7-(3,5-dimethylisoxazol-4-yl)-6-methoxy-4-((1-propionylpiperidin-4-yl)methyl)-2H-benzo[b][1,4]oxazin-3(4H)-one] | ≤ 1000
16 | COc1cc2c(cc1NC(=O)c1c(C)noc1C)OCC(=O)N2Cc1ccc(Cl)cc1 [Compound 94, N-(4-(4-chlorobenzyl)-6-methoxy-3-oxo-3,4-dihydro-2H-benzo [b][1,4]oxazin-7-yl)-3,5-dimethylisoxazole-4-carboxamide] | > 3000
17 | COc1cc2c(cc1Nc1c(C)noc1C)OCC(=O)N2Cc1ccc(Cl)cc1 [Compound 95, 4-(4-chlorobenzyl)-7-((3,5-dimethylisoxazol-4-yl)amino)-6-methoxy-2H-benzo[b][1,4]oxazin-3(4H)-one] | > 3000
18 | COc1cc2c(cc1-c1c(C)noc1C)cc(CO)c(=O)n2Cc1ccccn1 [Compound 96, 6-(3,5-dimethylisoxazol-4-yl)-3-(hydroxymethyl)-7-methoxy-1-(pyridin-2-ylmethyl)quinolin-2(1H)-one] | ≤ 1000
19 | COc1cc2c(cc1-c1c(C)noc1C)cc(CF)c(=O)n2Cc1ccccn1 [Compound 97, 6-(3,5-dimethylisoxazol-4-yl)-3-(fluoromethyl)-7-methoxy-1-(pyridin-2-ylmethyl)quinolin-2(1H)-one] | ≤ 1000
20 | COc1cc2c(cc1-c1c(C)noc1C)cc(C(O)(O)C(F)(F)F)c(=O)n2Cc1ccccn1 [Compound 104, 6-(3,5-dimethylisoxazol-4-yl)-7-methoxy-1-(pyridin-2-ylmethyl)-3-(2,2,2-trifluoro-1,1-dihydroxyethyl)quinolin-2(1H)-one] | ≤ 1000
21 | COc1cc2c(cc1-c1c(C)noc1C)cc(CC#N)c(=O)n2CCc1ccc(Cl)cc1 [Compound 106, 2-(1-(4-chlorophenethyl)-6-(3,5-dimethylisoxazol-4-yl)-7-methoxy-2-oxo-1,2-dihydroquinolin-3-yl)acetonitrile] | ≤ 1000

Further lines, results first:

Row | IC50 [nM] | Compound
22 | ≤ 1000 | COc1cc2c(cc1-c1c(C)noc1C)cc(C1CCCCC1)c(=O)n2Cc1cccnc1 [Compound 69, 3-cyclohexyl-6-(3,5-dimethylisoxazol-4-yl)-7-methoxy-1-(pyridin-3-ylmethyl)quinolin-2(1H)-one]
23 | > 3000 | COc1cc2c(cc1-c1c(C)noc1C)OCC(=O)N2Cc1ccc(O)nc1 [Compound 70]
24 | > 3000 | COCCOc1cc2c(cc1-c1c(C)noc1C)OCC(=O)N2Cc1ccncc1 [Compound 71, 7-(3,5-dimethylisoxazol-4-yl)-6-(2-methoxyethoxy)-4-(pyridin-4-ylmethyl)-2H-benzo[b][1,4]oxazin-3(4H)-one]
25 | ≤ 1000 | C=CCOc1cc2c(ccc(=O)n2Cc2ccccn2)cc1-c1c(C)noc1C [Compound 79, 7-(allyloxy)-6-(3,5-dimethylisoxazol-4-yl)-1-(pyridin-2-ylmethyl)quinolin-2(1H)-one]
26 | ≤ 1000 | Cc1noc(C)c1-c1cc2ccc(=O)n(Cc3ccccn3)c2cc1OCCCO [Compound 84, 6-(3,5-dimethylisoxazol-4-yl)-7-(3-hydroxypropoxy)-1-(pyridin-2-ylmethyl)quinolin-2(1H)-one]
27 | 1000 to 3000 | Cc1noc(C)c1-c1cc2ccc(=O)n(Cc3ccccn3)c2cc1OC(F)(F)F [Compound 85, 6-(3,5-dimethylisoxazol-4-yl)-1-(pyridin-2-ylmethyl)-7-(trifluoromethoxy)quinolin-2(1H)-one]
28 | 1000 to 3000 | Cc1noc(C)c1-c1cc2ccc(=O)n(Cc3ccccn3)c2cc1OCC1CCOCC1 [Compound 87, 6-(3,5-dimethylisoxazol-4-yl)-1-(pyridin-2-ylmethyl)-7-((tetrahydro-2H-pyran-4-yl)methoxy)quinolin-2(1H)-one]
29 | ≤ 1000 | Cc1noc(C)c1-c1cc2ccc(=O)n(Cc3ccccn3)c2cc1OCCC1CCNC1 (stereo not shown) [Compound 89, 6-(3,5-dimethylisoxazol-4-yl)-1-(pyridin-2-ylmethyl)-7-(2-(pyrrolidin-3-yl)ethoxy)quinolin-2(1H)-one hydrochloride]
30 | > 3000 | COc1cc2c(ccc(=O)n2Cc2ccccn2)cc1-n1c(C)c[nH]c1=O [Compound 91, 7-methoxy-6-(5-methyl-2-oxo-2,3-dihydro-1H-imidazol-1-yl)-1-(pyridin-2-ylmethyl)quinolin-2(1H)-one]
31 | > 3000 | COc1cc2c(ccc(=O)n2Cc2ccccn2)cc1C1=C(C)C(=O)NC1=O [Compound 92, 3-(7-methoxy-2-oxo-1-(pyridin-2-ylmethyl)-1,2-dihydroquinolin-6-yl)-4-methyl-1H-pyrrole-2,5-dione]
32 | ≤ 1000 | COc1cc2c(cc1-c1c(C)noc1C)ncc(=O)n2Cc1ccccn1 [Compound 93, 6-(3,5-dimethylisoxazol-4-yl)-7-methoxy-1-(pyridin-2-ylmethyl)quinoxalin-2(1H)-one]
33 | ≤ 1000 | COc1cc2c(ccc(=O)n2Cc2ccc(-c3cnn(C)c3)cn2)cc1-c1c(C)noc1C [Compound 98, 6-(3,5-dimethylisoxazol-4-yl)-7-methoxy-1-((5-(1-methyl-1H-pyrazol-4-yl)pyridin-2-yl)methyl)quinolin-2(1H)-one]
34 | > 3000 | COc1cc2c(cc1-c1c(C)noc1C)c(C#N)c(C)c(=O)n2CCc1ccc(Cl)cc1 [Compound 105, 1-(4-chlorophenethyl)-6-(3,5-dimethylisoxazol-4-yl)-7-methoxy-3-methyl-2-oxo-1,2-dihydroquinoline-4-carbonitrile]

— patent publication US10590118B2, “Bicyclic heterocyclic derivatives as bromodomain inhibitors” (Orion Corporation, priority 2014, dated 2020)
